Measurements: EP1275386A1, “SOLID […] IMPROVED ABSORBABILITY” (FUJISAWA PHARMACEUTICAL CO., LTD., priority 2000, dated 2001)

Columns and labels:
[1] = Test on solubility of active component in water (Test Example 1); assay type: physicochemical; conditions: 15mg equivalent of Active Component 1 in 7.5 mL of water at 37 °C, agitated with a stirrer; dihydrate
Description: Compared was the solubility of the solid dispersions obtained in Examples 2, 3 and 5 (referred to as "Preparation 2," "Preparation 3" and "Preparation 5," respectively, hereinafter) containing as an active ingredient N-(3,4-dimethoxybenzyl)-2-[(trans-4-formamidocyclohexyl)amino]-5-nitrobenzamide dihydrate (referred to as "Active Component 1" hereinafter), the amorphous Active Component 1 obtained in Comparative Example 1 and the crystal Active Component 1 obtained in Production Example 1. The test was performed by adding Preparations 2, 3 and 5, the amorphous Active Component 1 and the crystal Active Component 1 each containing 15mg equivalent of Active Component 1 to 7.5 mL of water heated to 37 °C, agitating the resulting mixtures with a stirrer and measuring the concentration of Active Component 1 in the solutions. The results are shown in Fig. 1, which is a graphical representation showing the change with time of the solubility in water of Preparations 2, 3 and 5, the amorphous Active Component 1 and the crystal Active Component 1. […]

[2] = Test on crystal state of Active Component 1 by DSC, storage at 70 °C for 7 days (Test Example 2); assay type: physicochemical
Protocol: Preparations 2 and 3 containing Active Component 1 and the amorphous Active Component 1 after being stored at 70 °C for 7 days were tested on the crystal state of Active Component 1 by differential scanning calorimetry (DSC for short hereinafter). […]

Row | SMILES | Maximum Concentration Achieved of Active Component 1 in water [1] | D S C analysis results ([2]; After storage at 70 °C for 7 days) | D S C analysis results ([2]; Before storage) | change of crystal state of Active Component 1 ([2]; after being stored at 70 °C for 7 days, DSC)
1 | COc1ccc(CNC(=O)c2cc([N+](=O)[O-])ccc2N[C@H]2CC[C@H](NC=O)CC2)cc1OC.O.O [Amorphous Active Component 1, N-(3,4-dimethoxybenzyl)-2-[(trans-4-formamidocyclohexyl)amino]-5-nitrobenzamide dihydrate] | 8.68 µg/mL | Endothermic peak caused by melting indicative of existence of crystal was recognized. | Endothermic peak caused by melting indicative of existence of crystal was not recognized. | changed from the amorphous state to a crystal state
2 | COc1ccc(CNC(=O)c2cc([N+](=O)[O-])ccc2N[C@H]2CC[C@H](NC=O)CC2)cc1OC.O.O [Crystal Active Component 1, N-(3,4-dimethoxybenzyl)-2-[(trans-4-formamidocyclohexyl)amino]-5-nitrobenzamide dihydrate] | 0.38 µg/mL |  |  | 
